Laboratory results published in ChEMBL document CHEMBL4145553, “Design, synthesis, and biological evaluation of novel amide and hydrazide based thioether analogs targeting Histone deacteylase (HDAC) enzymes” (Eur J Med Chem, 2018).
Activity calls are given as the source filed them. The rule behind the calls is not given here.

Columns and labels:
HCT-116 = test: Growth inhibition of human HCT116 cells assessed as cell growth at 10^-4 M incubated for 48 hrs by sulforhodamine B assay relative to control; format: functional; details: HCT-116, 48 h, read-out: Activity
UACC-62 = test: Growth inhibition of human UACC62 cells assessed as cell growth at 10^-6 M incubated for 48 hrs by sulforhodamine B assay relative to control; format: functional; details: UACC-62, 48 h, read-out: Activity
NCI-H322M [1] = test: Growth inhibition of human NCI-H322M cells assessed as cell growth at 10^-7 M incubated for 48 hrs by sulforhodamine B assay relative to control; format: functional; details: read-out: Activity
Histone deacetylase 2 = Histone deacetylase 2 (Homo sapiens, UniProt Q92769); test: Inhibition of human HDAC2 by ELISA
Chain of Histone deacetylase 2 (Q92769 whole entry): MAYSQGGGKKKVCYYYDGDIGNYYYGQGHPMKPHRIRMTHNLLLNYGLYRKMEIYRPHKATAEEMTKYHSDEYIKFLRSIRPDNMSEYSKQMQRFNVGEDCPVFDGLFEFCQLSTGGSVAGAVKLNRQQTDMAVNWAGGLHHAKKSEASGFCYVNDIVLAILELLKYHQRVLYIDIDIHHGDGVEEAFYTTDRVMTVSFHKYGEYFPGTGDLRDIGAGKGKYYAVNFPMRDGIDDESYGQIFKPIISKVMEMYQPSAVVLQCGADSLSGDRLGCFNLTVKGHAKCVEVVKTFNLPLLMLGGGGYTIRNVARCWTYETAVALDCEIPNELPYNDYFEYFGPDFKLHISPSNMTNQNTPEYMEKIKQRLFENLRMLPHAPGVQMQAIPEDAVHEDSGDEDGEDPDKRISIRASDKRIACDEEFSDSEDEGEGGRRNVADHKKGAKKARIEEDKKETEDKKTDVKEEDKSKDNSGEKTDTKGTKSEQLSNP

786-0 = test: Growth inhibition of human 786-0 cells assessed as cell growth at 10^-5 M incubated for 48 hrs by sulforhodamine B assay relative to control; format: functional; details: 786-0, 48 h, read-out: Activity
HT-29 = test: Growth inhibition of human HT-29 cells assessed as cell growth at 10^-4 M incubated for 48 hrs by sulforhodamine B assay relative to control; format: functional; details: HT-29, 48 h, read-out: Activity
CCRF-CEM = test: Growth inhibition of human CCRF-CEM cells incubated for 48 hrs by sulforhodamine B assay; format: functional
SN12C [2] = test: Growth inhibition of human SN12C cells assessed as cell growth at 10^-5 M incubated for 48 hrs by sulforhodamine B assay relative to control; format: functional; details: read-out: Activity
OVCAR-5 [3] = test: Growth inhibition of human OVCAR5 cells assessed as cell growth at 10^-7 M incubated for 48 hrs by sulforhodamine B assay relative to control; format: functional; details: OVCAR-5, 48 h, read-out: Activity
TK-10 = test: Growth inhibition of human TK10 cells assessed as cell growth at 10^-6 M incubated for 48 hrs by sulforhodamine B assay relative to control; format: functional; details: TK-10, 48 h, read-out: Activity
IGROV-1 = test: Growth inhibition of human IGROV1 cells assessed as cell growth at 10^-4 M incubated for 48 hrs by sulforhodamine B assay relative to control; format: functional; details: IGROV-1, 48 h, read-out: Activity
SN12C [4] = test: Growth inhibition of human SN12C cells assessed as cell growth at 10^-8 M incubated for 48 hrs by sulforhodamine B assay relative to control; format: functional; details: read-out: Activity
EKVX = test: Growth inhibition of human EKVX cells assessed as cell growth at 10^-6 M incubated for 48 hrs by sulforhodamine B assay relative to control; format: functional; details: read-out: Activity
T47D = test: Growth inhibition of human T47D cells incubated for 48 hrs by sulforhodamine B assay; format: functional
NCI-H322M [5] = test: Growth inhibition of human NCI-H322M cells assessed as cell growth at 10^-5 M incubated for 48 hrs by sulforhodamine B assay relative to control; format: functional; details: read-out: Activity
MCF7 = test: Growth inhibition of human MCF7 cells assessed as cell growth at 10^-8 M incubated for 48 hrs by sulforhodamine B assay relative to control; format: functional; details: MCF7, 48 h, read-out: Activity
ACHN = test: Growth inhibition of human ACHN cells assessed as cell growth at 10^-4 M incubated for 48 hrs by sulforhodamine B assay relative to control; format: functional; details: read-out: Activity
OVCAR-8 = test: Growth inhibition of human OVCAR8 cells assessed as cell growth at 10^-5 M incubated for 48 hrs by sulforhodamine B assay relative to control; format: functional; details: OVCAR-8, 48 h, read-out: Activity
SR [6] = test: Growth inhibition of human SR cells assessed as cell growth at 10^-5 M incubated for 48 hrs by sulforhodamine B assay relative to control; format: functional; details: read-out: Activity
NCI-H23 = test: Growth inhibition of human NCI-H23 cells assessed as cell growth at 10^-5 M incubated for 48 hrs by sulforhodamine B assay relative to control; format: functional; details: NCI-H23, 48 h, read-out: Activity
SR [7] = test: Growth inhibition of human SR cells assessed as cell growth at 10^-7 M incubated for 48 hrs by sulforhodamine B assay relative to control; format: functional; details: read-out: Activity
HL-60(TB) = test: Growth inhibition of human HL-60(TB) cells assessed as cell growth at 10^-8 M incubated for 48 hrs by sulforhodamine B assay relative to control; format: functional; details: HL-60, 48 h, read-out: Activity
OVCAR-3 [8] = test: Growth inhibition of human OVCAR3 cells assessed as cell growth at 10^-7 M incubated for 48 hrs by sulforhodamine B assay relative to control; format: functional; details: OVCAR-3, 48 h, read-out: Activity
OVCAR-5 [9] = test: Growth inhibition of human OVCAR5 cells assessed as cell growth at 10^-8 M incubated for 48 hrs by sulforhodamine B assay relative to control; format: functional; details: OVCAR-5, 48 h, read-out: Activity
COLO 205 = test: Growth inhibition of human COLO205 cells assessed as cell growth at 10^-6 M incubated for 48 hrs by sulforhodamine B assay relative to control; format: functional; details: COLO 205, 48 h, read-out: Activity
NCI-H226 = test: Growth inhibition of human NCI-H226 cells assessed as cell growth at 10^-5 M incubated for 48 hrs by sulforhodamine B assay relative to control; format: functional; details: NCI-H226, 48 h, read-out: Activity
OVCAR-3 [10] = test: Growth inhibition of human OVCAR3 cells assessed as cell growth at 10^-5 M incubated for 48 hrs by sulforhodamine B assay relative to control; format: functional; details: OVCAR-3, 48 h, read-out: Activity
UACC-257 = test: Growth inhibition of human UACC257 cells assessed as cell growth at 10^-6 M incubated for 48 hrs by sulforhodamine B assay relative to control; format: functional; details: UACC-257, 48 h, read-out: Activity
SK-MEL-5 = test: Growth inhibition of human SK-MEL-5 cells assessed as cell growth at 10^-7 M incubated for 48 hrs by sulforhodamine B assay relative to control; format: functional; details: SK-MEL-5, 48 h, read-out: Activity
Hs-578T = test: Growth inhibition of human Hs 578T cells assessed as cell growth at 10^-5 M incubated for 48 hrs by sulforhodamine B assay relative to control; format: functional; details: read-out: Activity
KM12 = test: Growth inhibition of human KM12 cells assessed as cell growth at 10^-6 M incubated for 48 hrs by sulforhodamine B assay relative to control; format: functional; details: KM12, 48 h, read-out: Activity
HCT-15 = test: Growth inhibition of human HCT15 cells assessed as cell growth at 10^-5 M incubated for 48 hrs by sulforhodamine B assay relative to control; format: functional; details: HCT-15, 48 h, read-out: Activity
HL-60 = test: Downregulation of HDAC8 mRNA expression in human HL60 cells by qRT-PCR method; format: functional, cell-based
SK-OV-3 = test: Growth inhibition of human SKOV3 cells assessed as cell growth at 10^-4 M incubated for 48 hrs by sulforhodamine B assay relative to control; format: functional; details: SK-OV-3, 48 h, read-out: Activity
[11] = read-out: LC50 (the source's name)
[12] = read-out: pLC50 (the source's name) (converted)

In the case of `CCS/C(Nc1ccccc1)=C(\C#N)C(=O)N/N=C\c1ccc(Cl)cc1Cl`, the growth at 100 µM (HCT-116) is reported as 3%, the growth at 1 µM (UACC-62) is reported as 69% and the growth at 0.1 µM (NCI-H322M [1]) is reported as 91%. The IC50 (Histone deacetylase 2) was 0.02 µM, the growth at 10 µM (786-0) was 23% and the growth at 100 µM (HT-29) was 9%. For the same compound, the GI50 (CCRF-CEM; read-out: GI50) was 3.07 µM, the CC50 (CCRF-CEM; [11]) was > 100 µM and the TGI (CCRF-CEM; read-out: TGI) was > 100 µM. The GI50 (CCRF-CEM; read-out: pGI50 (converted)) was 3.09 µM, the CC50 (CCRF-CEM; [12]) was > 100 µM and the TGI (CCRF-CEM; read-out: pTGI) was > 100 µM. The growth at 10 µM (SN12C [2]) was 41%, the growth at 0.1 µM (OVCAR-5 [3]) was 96% and the growth at 1 µM (TK-10) was 97%. It also gave a growth at 100 µM (IGROV-1) of 30%, a growth at 0.01 µM (SN12C [4]) of 97% and a growth at 1 µM (EKVX) of 87%. The GI50 (T47D; read-out: GI50) was 4.03 µM, the CC50 (T47D; [11]) was > 100 µM and the TGI (T47D; read-out: TGI) was > 100 µM. The GI50 (T47D; read-out: pGI50 (converted)) was 4.07 µM, the CC50 (T47D; [12]) was > 100 µM and the TGI (T47D; read-out: pTGI) was > 100 µM. The growth at 10 µM (NCI-H322M [5]) was 42%, the growth at 0.01 µM (MCF7) was 97% and the growth at 100 µM (ACHN) was 29%. The growth at 10 µM (OVCAR-8) was 27%, the growth at 10 µM (SR [6]) was 28% and the growth at 10 µM (NCI-H23) was 41%. For the same compound, the growth at 0.1 µM (SR [7]) was 80%, the growth at 0.01 µM (HL-60(TB)) was 97% and the growth at 0.1 µM (OVCAR-3 [8]) was 97%. The growth at 0.01 µM (OVCAR-5 [9]) was 105%, the growth at 1 µM (COLO 205) was 99% and the growth at 10 µM (NCI-H226) was 27%. The growth at 10 µM (OVCAR-3 [10]) was 1%, the growth at 1 µM (UACC-257) was 92% and the growth at 0.1 µM (SK-MEL-5) was 90%. It also gave a growth at 10 µM (Hs-578T) of 18%, a growth at 1 µM (KM12) of 90% and a growth at 10 µM (HCT-15) of 19%. For the same compound, the Activity (HL-60) was “Active” and the growth at 100 µM (SK-OV-3) was 12%.
Work on `CCS/C(Nc1ccccc1)=C(\C#N)C(=O)Nc1ccc(OC)cc1` yielded a growth at 100 µM (HCT-116) of -11%, a growth at 1 µM (UACC-62) of 71% and a growth at 0.1 µM (NCI-H322M [1]) of 92%. It also gave an IC50 (Histone deacetylase 2) of 0.032 µM, a growth at 10 µM (786-0) of 30% and a growth at 100 µM (HT-29) of -8%. The GI50 (CCRF-CEM; read-out: GI50) was 1.83 µM, the CC50 (CCRF-CEM; [11]) was > 100 µM and the TGI (CCRF-CEM; read-out: TGI) was > 100 µM. For the same compound, the GI50 (CCRF-CEM; read-out: pGI50 (converted)) was 1.82 µM, the CC50 (CCRF-CEM; [12]) was > 100 µM and the TGI (CCRF-CEM; read-out: pTGI) was > 100 µM. It also gave a growth at 10 µM (SN12C [2]) of 37%, a growth at 0.1 µM (OVCAR-5 [3]) of 95% and a growth at 1 µM (TK-10) of 97%. It also gave a growth at 100 µM (IGROV-1) of 28%, a growth at 0.01 µM (SN12C [4]) of 97% and a growth at 1 µM (EKVX) of 84%. The GI50 (T47D; read-out: GI50) was 4.08 µM, the CC50 (T47D; [11]) was > 100 µM and the TGI (T47D; read-out: TGI) was > 100 µM. For the same compound, the GI50 (T47D; read-out: pGI50 (converted)) was 4.07 µM, the CC50 (T47D; [12]) was > 100 µM and the TGI (T47D; read-out: pTGI) was > 100 µM. The growth at 10 µM (NCI-H322M [5]) was 38%, the growth at 0.01 µM (MCF7) was 98% and the growth at 100 µM (ACHN) was 17%. For the same compound, the growth at 10 µM (OVCAR-8) was 23%, the growth at 10 µM (SR [6]) was 21% and the growth at 10 µM (NCI-H23) was 34%. For the same compound, the growth at 0.1 µM (SR [7]) was 85%, the growth at 0.01 µM (HL-60(TB)) was 96% and the growth at 0.1 µM (OVCAR-3 [8]) was 97%. It also gave a growth at 0.01 µM (OVCAR-5 [9]) of 104%, a growth at 1 µM (COLO 205) of 96% and a growth at 10 µM (NCI-H226) of 37%. For the same compound, the growth at 10 µM (OVCAR-3 [10]) was -6%, the growth at 1 µM (UACC-257) was 93% and the growth at 0.1 µM (SK-MEL-5) was 90%. It also gave a growth at 10 µM (Hs-578T) of 28%, a growth at 1 µM (KM12) of 68% and a growth at 10 µM (HCT-15) of 16%. The Activity (HL-60) was “Active” and the growth at 100 µM (SK-OV-3) was -4%.
